{"source": "patent US12083079B2", "about": "“Sphingoid compounds for prophylaxis and/or therapy of a viral infection” (priority 2018, dated 2024)", "key": {"[1]": {"system": "lymphocytic choriomeningitis virus (LCMV)", "assay_type": "cell-based"}, "[2]": {"system": "vesicular stomatitis virus (VSV)", "assay_type": "cell-based"}, "[3]": {"system": "rhinovirus strain RV14 (major strain)", "test": "Rhinovirus RV14 infection of Hela cells, dead cells by Trypan Blue", "assay_type": "cell-based", "settings": "added 10 min before or 60 min or 240 min after infection, 4 days"}, "rhinovirus 14 (RV14)": {"system": "rhinovirus 14 (RV14)", "test": "RV14 infection of freshly isolated human epithelial cells, Hela cytotoxicity readout", "assay_type": "cell-based", "settings": "10 μM or 20 μM, 24 hrs", "description": "(§1) 10^4 PFU of Rhinovirus 2 or 14 (RV2, RV14) were incubated with freshly isolated human epithelial cells for 24 hrs in the presence of 10 μM or 20 μM sphingosine (SPH) or the corresponding concentration of the solvent octylglucopyranoside (OGP), the cells were pelleted, supernatants completely removed, the cell pellets resuspended in PBS and added to Hela cells. Cells were incubated for 3 days and cytotoxicity as measurement for virus titers was determined. Shown is the mean±SD, n=4, *p<0.001 ANOVA."}, "[4]": {"test": "Surface sphingosine in nasal mucosa after intranasal application, in situ sphingosine kinase assay", "assay_type": "in vivo", "settings": "wild-type mice", "description": "Sphingosine (SPH) was applied into the nose of wild-type mice and the concentration of sphingosine on the epithelial cell surface was determined after 1, 4 and 8 hrs (a.i.: after injection of sphingosine). To this end, 10 μl, of a 10 μM or a 100 μM sphingosine solution was applied into the nostrils of wild-type mice. Controls received the solvent, i.e. octylglucopyranoside at the same concentration used when sphingosine was applied, or were left untreated. Mice were slightly and very briefly anesthetized with ether. For the intranasal application we used a blunt-end 30 g needle that was covered with a thin plastic film. The blunt-ended needle was inserted into the nostrils approximately 2 mm. Mice were sacrificed after the indicated time, the nasal bone was removed, placed on a 30° C. pre-warmed plastic plate and an area of 2 mm×2 mm was immediately incubated with 0.001 units of sphingosine kinase 1 (#6068-SK-010, R&D) in 4 μl of 150 mM sodium acetate (pH 7.4), 1 μM ATP, and 10 μCi [^32P]γATP/sample. Controls were incubated with the same buffer without sphingosine kinase or were left untreated. […] The TLC plates were analyzed with a phosphoimager. Surface sphingosine levels were determined with a standard curve of C18-sphingosine. […]"}, "Hela cells": {"system": "Hela cells", "settings": "uninfected Hela cells, 10 μM or 20 μM"}, "RV1b": {"system": "RV1b", "test": "Binding of sphingosine to RV1b immobilized to agarose beads, remaining sphingosine by kinase assay", "set-up": "species or system rhinovirus", "settings": "250 μM sphingosine in PBS (pH 7.0), 4 hrs at 4° C.", "description": "As a complement to the above study, RV1b (obtained from ATCC) were immobilized to agarose beads and tested for binding of sphingosine (SPH). To this end, we incubated 1 μg/ml anti-RV1b antibodies with 10^6 CFU RV1b for 1 h at 4° C. in H/S, added 50 μL agarose protein A/G beads (Santa Cruz Inc.), incubated for an additional 1 h at 4° C. and washed the immobilized precipitates 5-times in H/S. We resuspended the beads in 500 μL PBS (pH 7.0) containing 250 μM sphingosine. Samples were incubated for 4 hrs at 4° C., pelleted and aliquots of the supernatants were added to 50 mM HEPES (pH 7.4), 250 mM NaCl, 30 mM MgCl2, 0.001 units sphingosine kinase (R&D), 1 mM ATP and 10 μCi [^32P]γATP. The kinase reaction was performed for 1 hr at 30° C., stopped by addition of 20 μl 1N HCl, 800 μl CHCl3/CH3OH/1N HCl (100:200:1, v/v/v), 240 μl CHCl3 and 2 M KCl. Phases were separated, the lower phase was collected, dried, dissolved in 20 μL of CHCl3:CH3OH (1:1, v/v) and separated on Silica G60 thin layer chromatography (TLC) plates using CHCl3/CH3OH/acetic acid/H2O (90:90:15:5, v/v/v/v). The TLC plates were exposed to radiography films, spots were removed from the plates, and the incorporation of [^32P] into sphingosine measured by liquid scintillation counting. Sphingosine was determined using a standard curve of C18-SPH. […]"}, "[5]": {"system": "rhinovirus strain RV2 (minor strain)", "test": "Rhinovirus RV2 infection of Hela cells, dead cells by Trypan Blue", "assay_type": "cell-based", "settings": "added 10 min before or 60 min or 240 min after infection, 4 days"}, "[6]": {"system": "rhinovirus strain 2 (RV2)", "test": "Intranasal RV2 infection of wild-type mice, Hela cell death bioassay of nasal bone", "assay_type": "in vivo", "settings": "10 μL of 100 μM intranasal, 10 min prior to or 1, 4 or 8 hrs after infection, sacrificed after 24 hrs", "description": "Mice were infected with 10^3 PFU rhinovirus strain 2 (RV2) in 10 μL PBS. The virus was applied directly into the nose using a blunt ended, plastic coated 30 g needle, that was inserted into the nose approximately 2 mm. Sphingosine (SPH) was applied into the nose of the wild-type mice at a concentration of 100 μM solution in PBS in a volume of 10 μL. Sphingosine was applied either 10 min prior to rhinovirus infection (b.i.) or 1 hr, 4 hrs and 8 hrs after the infection (a.i.). Controls received the solvent, i.e. octylglucopyranoside (OGP) at the same concentration than used when sphingosine was applied, or were left untreated, but infected. Solutions were applied as in 3.2. Mice were sacrificed after 24 hrs, the nasal bone was removed and incubated for 4 days with Hela cells in a 24 well plate. If the nasal epithelial cells are infected, rhinovirus will be released due to the cytopathic effect of the virus and the in vivo infection can then be determined and quantified by measuring cell death of Hela cells as a bioassay. To this end, dead cells were collected, adherent cells were trypsinized, the fractions were combined, washed twice in H/S (20 mM HEPES, 132 mM NaCl, 5 mM KCl, 1 mM CaCl2), 0.7 mM MgCl2, 0.8 mM MgSO4, pH 7.4), stained with Trypan Blue (0.2% final concentration) and dead cells were counted in aliquots of 500 cells as above. […]"}, "[7]": {"system": "epithelial cells of the nose", "test": "Dead nasal epithelial cells after intranasal sphingosine (Trypan Blue)", "assay_type": "in vivo", "settings": "wild-type mice, 10 μL of 10 μM or 100 μM solution intranasal; 8 hours or 24 hours", "description": "Sphingosine was applied into the nose of wild-type mice as in 3.2. 10 μL of a 10 μM or a 100 μM sphingosine (SPH) solution was administered into the nostrils of wild-type mice. Controls received the solvent, i.e. octylglucopyranoside at the same concentration used when sphingosine was applied, or were left untreated. Mice were anesthetized prior to application of sphingosine. Mice were sacrificed after 8 hours or 24 hours, the nasal bone was removed and incubated in Trypsin solution for 10 min to release and isolate epithelial cells. Cells were washed twice in H/S (20 mM HEPES, 132 mM NaCl, 5 mM KCl, 1 mM CaCl2), 0.7 mM MgCl2, 0.8 mM MgSO4, pH 7.4), stained with Trypan Blue (0.2% final concentration) and dead cells were counted in aliquots of 500 cells. Given is the percentage of dead cells±SD from 4 independent experiments each; *p<0.05, ANOVA."}, "rhinovirus 2 (RV2)": {"system": "rhinovirus 2 (RV2)", "test": "RV2 infection of freshly isolated human epithelial cells, Hela cytotoxicity readout", "assay_type": "cell-based", "settings": "10 μM or 20 μM, 24 hrs", "description": "as §1"}, "HIV-1 JR-CSF": {"system": "HIV-1 JR-CSF", "test": "HIV-P24 ELISA in supernatant of infected human T cells", "assay_type": "cell-based", "settings": "50 μM, after 7 days"}, "[8]": {"system": "lymphocytic choriomeningitis virus (LCMV)", "assay_type": "cell-based", "remark": "listed apart in the source"}}, "data": [{"compound": "sphingomyelinase", "values": [{"measurement": "virus production (infectious LCMV particles in the supernatant)", "setting": "[1]", "result": "inhibits the propagation of LCMV"}, {"measurement": "number of plaques", "setting": "[2]", "result": "inhibits the propagation of VSV"}]}, {"compound": "CCCCCCCCCCCCC/C=C/[C@@H](O)[C@@H](N)CO", "note": "[sphingosine, (2S,3R,4E)-2-amino-4-octadecene-1,3-diol]", "values": [{"measurement": "virus production (infectious LCMV particles in the supernatant)", "setting": "[1]", "result": "inhibits the propagation of LCMV"}, {"measurement": "infection with RV14 (percentage of dead cells)", "setting": "[3]; 10 μM", "result": "prevented the infection"}, {"measurement": "infection with RV14 (percentage of dead cells)", "setting": "[3]; 20 μM", "result": "prevented the infection"}, {"measurement": "infection of human epithelial cells by RV14 (cytotoxicity as measurement for virus titers)", "setting": "rhinovirus 14 (RV14)", "result": "abrogates infection"}, {"measurement": "surface sphingosine concentration in nasal mucosa", "setting": "[4]; 10 μl of 10 μM or 100 μM solution into the nostrils, 1, 4 and 8 hrs", "result": "dose-dependent accumulation of sphingosine in the mucosa"}, {"measurement": "surface sphingosine concentration after washing the mucosa in PBS", "setting": "[4]; washing prior to the in situ kinase assay", "result": "reduces sphingosine accumulation"}, {"measurement": "effect of sphingosine itself on the cells (percentage of dead cells)", "setting": "Hela cells", "result": "had no effect on the cells"}, {"measurement": "binding of sphingosine to RV1b-coupled agarose beads (remaining sphingosine in the supernatant)", "setting": "RV1b", "result": "efficiently bind sphingosine"}, {"measurement": "infection with RV2 (percentage of dead cells)", "setting": "[5]; 10 μM", "result": "prevented the infection"}, {"measurement": "infection with RV2 (percentage of dead cells)", "setting": "[5]; 20 μM", "result": "prevented the infection"}, {"measurement": "infection with RV2 in vivo (percentage of dead Hela cells, bioassay)", "setting": "[6]", "result": "prevented"}, {"measurement": "toxic effects (percentage of dead nasal epithelial cells)", "setting": "[7]", "result": "no toxic effects on epithelial cells of the nose"}, {"measurement": "infection of human epithelial cells by RV2 (cytotoxicity as measurement for virus titers)", "setting": "rhinovirus 2 (RV2)", "result": "abrogates infection"}]}, {"compound": "MP A08", "values": [{"measurement": "amount of HIV-P24 in the supernatant", "setting": "HIV-1 JR-CSF", "result": "prevents the propagation of HIV"}]}, {"compound": "Oc1ccc(Nc2nc(-c3ccc(Cl)cc3)cs2)cc1", "note": "[SKII, 2-(p-hydroxyanilino)-4-(p-chlorophenyl)thiazole]", "values": [{"measurement": "virus-infected cells by immunofluorescence", "setting": "[8]", "result": "inhibits the spreading of the virus"}]}]}
